Measurements from patent US10870635B2, “Compounds and their use as BACE1 inhibitors” (ALLGENESIS BIOTHERAPEUTICS, INC., priority 2015, dated 2020).

Tests used:
[1] = animal toxicology study; cited from earlier work
[2] = biological target: Human recombinant cathepsin D (Homo sapiens (Human), UniProt P07339); experiment: Cathepsin D activity assay; assay type: biochemical; conditions: read-out: CatD IC50
Experimental: The development of a CatD activity assay is used to determine any potential cross reactivity for compounds selected from the β-secretase activity assay and to determine the selectivity to BACE1 inhibition. The CatD activity is reported for assessing target selectivity ratio (CatD IC50/BACE1 IC50).
The reagents for the cathepsin D assay were prepared as follows.
Human recombinant cathepsin D stored frozen in 2.0 μl aliquots was thawed and 42 μl of enzyme buffer (0.1M NaOAC, 0.2 M NaCl, pH 3.5) was added and incubated at 37° C. for 30 minutes. After 30 minutes the enzyme was further diluted to a final volume of 4.4 ml in enzyme buffer containing 5.0 mM DTT for immediate use in the cathepsin D assay.
The 7-methoxycoumarin-labeled peptide substrate (ES010) for cathepsin D was supplied as a 6.2 mM stock in DMSO. For use in the cathepsin D assay, the 6.2 mM stock was diluted to a 1.55 mM stock with DMSO. The 1.55 mM peptide stock in DMSO was further diluted 1:100 in reaction buffer (0.1M NaOAC, 0.2M NaCl, 0.1% Tween 20, 5.0 mM DTT, pH3.5) to create a 15.5 μM stock for use in the assay.
DMSO without compound served as a DMSO vehicle control for the cathepsin D assay. For each test compound, 30 μl of each dilution was pipetted into a separate well of a 96-well polypropylene plate. This polypropylene plate was labeled as the DMSO dilution plate and a plate map of test compound locations was made.
Test compounds from the DMSO dilution plate require a 1:100 dilution into reaction buffer before they can be added to the cathepsin D assay plate. To accomplish the 1:100 dilution of test compounds, 2.0 μl of each test compound at each concentration was pipetted from the DMSO dilution plate (using a multi-channel pipette calibrated to accurately dispense a 2.0 μl volume) into a new 96-well polypropylene plate using the plate map created for the DMSO dilution plate. This 96-well plate served as the inhibitor dilution plate. Next, 198 μl of reaction buffer was pipetted into each well of the inhibitor dilution plate (using a multi-channel pipette calibrated for accurate delivery of a 198 μl volume) and the pipetted test compound mixed by gentle up and down pipetting.
A1.0 mM stock of pepstatin A was made in DMSO and aliquotted into 5.0 μl samples for freezing and storage at −20° C. Upon thawing, 45 μl of DMSO (1:10 dilution) was added to create a 100 μM stock of pepstatin A in DMSO. The 100 μM Pepstatin A stock was further diluted 1:10 with DMSO to create a 10 μM stock in DMSO. […]
The assay plate was placed into a fluorescent plate reader with the excitation wavelength set at 320 nm and the emission wavelength set at 405 nm. Readings were collected every minute over a 30 minute collection period.

[3] = biological target: BACE1 (recombinant β-secretase enzyme) (Homo sapiens (Human), UniProt P56817); experiment: AnaSpec BACE1 fluorescent assay (beta-secretase activity assay); assay type: biochemical
Experimental: A BACE1 activity assay kit from AnaSpec (Fremont, Calif.) was used to determine the potency of the selected BACE1 inhibitors by AnaSpec BACE1 fluorescent assay. The recombinant β-secretase enzyme was diluted 1:200 in 1× assay buffer (1 part of 1× assay buffer and 1 part of TBS containing 0.1% Tween 20). The enzyme was added in a volume of 40 μl to each well of a black 96-well micro plate.
The BACE1 inhibitors were serially diluted into DMSO from their 10 mM stock concentrations in DMSO. The serially diluted inhibitors were diluted 1:100 into 1× assay buffer in a 96-well polypropylene plate (assay dilution plate). The final concentration of the BACE1 inhibitor tested was 300 nM, 100 nM, 30 nM, 10 nM, 3 nM, 1 nM 0.3 nM, and 0.00 nM. Dose responses for inhibitors were run in duplicate.
A volume of 10 μl of the inhibitor from the assay dilution plate, a control inhibitor LY2886721 or inhibitor vehicle was then added to each well of the black 96-well micro plate containing BACE1.
(§1) To each well of the black 96-well micro plate, 50 μl of the β-secretase substrate (Hylite Fluor 488) diluted 1:100 using assay buffer was added. The reagents were mixed gently and the assay plate was placed into a POLARstar fluorescent plate reader with excitation wavelength set at 485 nm and the emission wavelength set at 520 nm. The plate reader was set to take readings every 5 minutes for up to 30 minutes or a 30 minute endpoint reading was used.
An appropriate integrated first-order rate equation was used to fit the data accumulated over a 30-40 minute collection period.

recombinant BACE2 = recombinant BACE2 (Homo sapiens (Human), UniProt Q9Y5Z0); experiment: AnaSpec BACE2 fluorescent assay; assay type: biochemical
Experimental: A BACE2 activity assay kit from AnaSpec (Fremont, Calif.) was used to determine the potency of the selected compounds by AnaSpec BACE2 fluorescent assay. To each well of a black 96-well micro plate, 50 μl of the β-secretase substrate (Hylite Fluor 488) diluted 1:100 using assay buffer was first added.
The compounds were serially diluted (1:2) into DMSO from their 10 mM stock concentrations in DMSO. The serially diluted inhibitors were diluted 1:100 into 1× assay buffer in a 96-well polypropylene plate (assay dilution plate). The final concentration of these compounds tested was 300 nM, 150 nM, 75 nM, 37.5 nM, 18.75 nM, 9.375 nM, 4.688 nM, 2.344 nM, 1.172 nM, 0.586 nM, and 0.293 nM.
A volume of 10 μl of the inhibitor from the assay dilution plate, a control inhibitor LY2886721 or inhibitor vehicle was then added to each well of the black 96-well micro plate.
The recombinant BACE2 was diluted in an assay buffer and the final BACE2 was 10.6 nM. The enzyme was added in a volume of 40 μl to each well of a black 96-well micro plate.
as §1, with “The” for “To each well of the black 96-well micro plate, 50 μl of the β-secretase substrate (Hylite Fluor 488) diluted 1:100 using assay buffer was added. The”
An appropriate integrated first-order rate equation was used to fit the data accumulated over a 30-40 minute collection period. Dose responses for inhibitors were run in duplicate.

[4] = in humans; cited from earlier work
[5] = tested on: CSF Aβ40, Aβ42 and soluble APPβ; conditions: AD patients, reported by Merck; cited from earlier work

Sequence of BACE1 (recombinant β-secretase enzyme) (P56817 46-501): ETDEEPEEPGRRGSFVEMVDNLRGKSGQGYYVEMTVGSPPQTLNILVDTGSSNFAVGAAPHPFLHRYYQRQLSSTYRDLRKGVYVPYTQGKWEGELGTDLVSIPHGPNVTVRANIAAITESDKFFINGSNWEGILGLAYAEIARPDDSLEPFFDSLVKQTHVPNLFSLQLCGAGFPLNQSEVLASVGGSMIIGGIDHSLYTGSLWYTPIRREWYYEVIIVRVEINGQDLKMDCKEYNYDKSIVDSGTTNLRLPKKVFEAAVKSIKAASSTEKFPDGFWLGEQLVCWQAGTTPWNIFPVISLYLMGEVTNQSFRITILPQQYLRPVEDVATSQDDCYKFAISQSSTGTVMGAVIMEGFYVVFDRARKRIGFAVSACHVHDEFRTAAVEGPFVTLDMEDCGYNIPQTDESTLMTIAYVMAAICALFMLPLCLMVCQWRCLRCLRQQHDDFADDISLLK
Sequence of recombinant BACE2 (Q9Y5Z0 63-518): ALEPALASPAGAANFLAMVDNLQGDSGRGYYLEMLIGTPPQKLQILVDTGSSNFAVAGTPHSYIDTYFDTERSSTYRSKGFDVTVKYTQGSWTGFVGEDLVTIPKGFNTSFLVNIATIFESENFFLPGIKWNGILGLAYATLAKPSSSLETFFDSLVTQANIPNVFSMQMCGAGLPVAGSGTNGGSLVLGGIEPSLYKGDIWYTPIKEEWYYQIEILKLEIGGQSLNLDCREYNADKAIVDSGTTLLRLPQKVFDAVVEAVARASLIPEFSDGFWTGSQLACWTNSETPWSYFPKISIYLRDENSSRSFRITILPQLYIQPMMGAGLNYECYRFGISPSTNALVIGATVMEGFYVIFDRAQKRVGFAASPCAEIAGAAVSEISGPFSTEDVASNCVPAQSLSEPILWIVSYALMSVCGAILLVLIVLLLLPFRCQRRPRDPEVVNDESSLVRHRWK
Sequence of Human recombinant cathepsin D (P07339 65-412): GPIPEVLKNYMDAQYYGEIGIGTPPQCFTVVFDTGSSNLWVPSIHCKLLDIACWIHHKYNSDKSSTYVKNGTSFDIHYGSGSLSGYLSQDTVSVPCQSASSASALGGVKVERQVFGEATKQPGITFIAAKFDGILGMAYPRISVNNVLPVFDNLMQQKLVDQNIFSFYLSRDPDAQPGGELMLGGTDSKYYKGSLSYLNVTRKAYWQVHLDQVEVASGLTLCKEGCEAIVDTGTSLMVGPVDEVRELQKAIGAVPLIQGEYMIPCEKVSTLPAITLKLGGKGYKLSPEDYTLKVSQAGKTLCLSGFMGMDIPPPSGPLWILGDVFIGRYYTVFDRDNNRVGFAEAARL

Row | Compound | IC50 [2] [µM] | IC50 [3] [nM] | IC50 (recombinant BACE2) [nM] | other results
1 | C[C@@]1(c2cc(-c3cncnc3)c(F)cc2F)CCSC(N)=N1 [LY-2811376] |  |  |  | toxicity finding leading to discontinuation [1]: retinal toxicity
2 | CC#Cc1ccc2sc3ccc([C@]4(C)CC(=O)N(C)C(=N)N4)cc3c2c1 [Example 1, (S)-2-Imino-3,6-dimethyl-6-(8-(prop-1-yn-1-yl)dibenzo[b,d]thiophen-2-yl)tetrahydropyrimidin-4(1H)-one] | 12.3 | 26 |  | 
3 | CC#Cc1ccc2sc3cc(Cl)c([C@]4(C)CC(=O)N(C)C(N)=N4)cc3c2c1 [Example 71, (S)-2-Amino-6-(3-chloro-8-(prop-1-yn-1-yl)dibenzo[b,d]thiophen-2-yl)-3,6-dimethyl-5,6-dihydropyrimidin-4(3H)-one] | 3.9 | 44 | 23.8 ± 1.52 | 
4 | CC#Cc1ccc2[nH]c([C@]3(C)CC(=O)N(C)C(=N)N3)c(Cl)c2c1 [Example 38, (S)-6-(3-Chloro-5-(prop-1-yn-1-yl)-1H-indol-2-yl)-2-imino-3,6-dimethyl-tetrahydropyrimidin-4(1H)-one] |  | 44 | 24 | 
5 | NC1=N[C@@]2(c3cc(NC(=O)c4ccc(F)cn4)ccc3F)COC[C@H]2CS1 [LY-2886721] |  |  |  | toxicity finding leading to termination [4]: liver toxicity
6 | CN1C(=N)N[C@](C)(c2cc(NC(=O)c3ccc(F)cn3)ccc2F)CS1(=O)=O [MK-8931] |  |  |  | effect on CSF Aβ40, Aβ42 and soluble APPβ [5]: reduce CSF Aβ40, Aβ42 and soluble APPβ
